“And” between values parts separate entries of the source, which are not always exact repeats. Equal values may be shown once.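 Cultured in 96-well plates, cells were exposed to test compound for 48 hours across five concentrations. At the GI50, growth is halved. TGI denotes the concentration required for complete inhibition of growth.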 Bounds are passed on as bounds.

Among the data in PubChem BioAssay (NCI) are TGI and GI50 values, retold here.

Test systems include DU-145 prostate; HCC-2998 colon; MCF7 breast; T-47D breast; HOP-92 NSCLC; HL-60(TB) leukemia; A498 renal; DLD-1 colon; MOLT-4 leukemia.
Common to all, as to experiment: inhibition of tumour cell growth, NCI panel, 48 h

`COc1ccc(CC2C(=O)NC(C)C(=O)N(C)C3Cc4ccc(cc4)Oc4cc(ccc4O)CC(C(=O)NC(C)C(=O)NC(C)C(=O)N2C)N(C)C3=O)cc1` (centres undefined): the TGI with DU-145 prostate is 0.00288 µM; with HCC-2998 colon it was 0.0168 µM and 0.0292 µM; in the assay with T-47D breast, 0.201 µM and 0.0219 µM; in the assay with HOP-92 NSCLC, 0.000866 µM; with A498 renal, 0.0147 µM and 0.0709 µM; in the assay with DLD-1 colon, 1.09 µM. Besides, the GI50 in the assay on HCC-2998 colon was less than 0.0001 µM; in the assay with MCF7 breast, less than 0.0001 µM; in the assay with HOP-92 NSCLC, 0.000108 µM; with HL-60(TB) leukemia, less than 0.0001 µM; in the assay with MOLT-4 leukemia it was less than 0.0001 µM.
For the compound `C=C1C(=O)C[C@@]23CCC[C@@]12CC(O)C3` (some centres undefined), the TGI in the assay on HCC-2998 colon was more than 62.1 µM; with MCF7 breast, 33.6 µM; in the assay on HOP-92 NSCLC it was 42.1 µM; in the assay with HL-60(TB) leukemia, 49.9 µM; in the assay with A498 renal, more than 48.9 µM; in the assay with DLD-1 colon it was 54.8 µM. In addition, the TGI in the assay with MOLT-4 leukemia was more than 80.7 µM.
For `CSc1nc2c(ncn2C2OCC(O)C(O)C2O)c(=O)[nH]1` (centres undefined), the TGI with HCC-2998 colon, in the assay with MCF7 breast, in the assay on HOP-92 NSCLC, in the assay on HL-60(TB) leukemia, in the assay on A498 renal and in the assay on DLD-1 colon was more than 100 µM in each case. In the assay on MOLT-4 leukemia, the TGI is more than 100 µM.
In the case of `CC(=O)c1c(O)c(C)c(O)c2c1OC1=CC(=O)C(C(C)=O)C(=O)C12C` (centres undefined), the GI50 was 6.08 µM and 13.7 µM in the assay with HCC-2998 colon; 5.75 µM and 12 µM in the assay on MCF7 breast; 5.38 µM and 18.7 µM with HOP-92 NSCLC; 3.15 µM and 16.4 µM in the assay on HL-60(TB) leukemia; 0.232 µM and 0.507 µM in the assay on A498 renal; 4.9 µM and 16.1 µM in the assay with DLD-1 colon. Besides, in the assay with MOLT-4 leukemia, the GI50 is 3.37 µM and 20.1 µM. The TGI is 17.1 µM and 22.8 µM with HCC-2998 colon; 24.7 µM and 26 µM in the assay with MCF7 breast; 9.69 µM and 57.1 µM in the assay on HOP-92 NSCLC; 8.9 µM and 43 µM in the assay on HL-60(TB) leukemia; 0.412 µM and 0.742 µM in the assay with A498 renal; 29.9 µM and 69 µM with DLD-1 colon. Also, the TGI in the assay with MOLT-4 leukemia is 13.5 µM and 59.4 µM.
